Measured values from patent US7101878B1 (Agouron Pharmaceuticals, Inc., priority 1998, dated 2006).
Read-outs that look alike come from different tables or passages of the source.

Biological target: T1, human GnRH receptor (Homo sapiens, UniProt P30968)
T1 construct: expressed in transfected cells; host or cells: HEK 293 (hGnRH-R/293, from Dr. Stuart Sealfon)
T1 sequence (P30968 1-328): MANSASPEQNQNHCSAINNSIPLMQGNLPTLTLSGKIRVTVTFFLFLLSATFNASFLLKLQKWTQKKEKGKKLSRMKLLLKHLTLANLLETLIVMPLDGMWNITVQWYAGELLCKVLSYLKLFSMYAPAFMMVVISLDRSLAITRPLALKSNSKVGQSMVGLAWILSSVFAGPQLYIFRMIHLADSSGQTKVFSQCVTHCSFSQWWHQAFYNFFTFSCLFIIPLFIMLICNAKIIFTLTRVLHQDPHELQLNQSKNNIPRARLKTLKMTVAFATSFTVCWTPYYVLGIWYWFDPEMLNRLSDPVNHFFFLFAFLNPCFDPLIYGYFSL
Test: Radioligand binding, 125I-GnRH-A displacement, membranes of HEK 293 cells with human GnRH receptor
Conditions: for IC50: read-out: hGnRH IC50; for remaining activity at 1 µM / remaining activity at 10 µM: substrate remaining, closer to zero = closer to 100% inhibition; for remaining activity at 1 µM: 1 uM compound, read-out: S%R 1 uM hGnRHR; for remaining activity at 10 µM: 10 uM compound, read-out: S%R 10 uM hGnRHR
How it was run: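 After filtration and PBS washes, bound radioactivity was counted by scintillation and IC50 derived. Identical conditions applied for non-human receptors.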

[1] = 1 uM, read-out: % Inhib. @ 1 uM hGnRH
[2] = 1 h, repeat of % Inhib. at 1 uM, read-out: Repeats @ 1 uM hGnRH

Cc1cc2c(cc1Cc1ccc(C(=O)NC(CO)[C@H](O)c3ccc([N+](=O)[O-])cc3)o1)C(C)(C)CCC2(C)C (stereo partly drawn)
inhibition at 1 µM [1]: -10%
inhibition at 1 µM [2]: -15%

Cc1cc2c(cc1Cc1ccc(C(=O)NCc3ccccc3F)o1)C(C)(C)CCC2(C)C [drawing 1090]
inhibition at 1 µM [1]: 81%
inhibition at 1 µM [2]: 89%

Cc1cc2c(cc1Cc1ccc(C(=O)N(C)CCc3ccccc3)o1)C(C)(C)CCC2(C)C
inhibition at 1 µM [1]: 10%
inhibition at 1 µM [2]: 9%

Cc1cc2c(cc1Cc1ccc(C(=O)N3CCN(CCN(Cc4ccccn4)C(=O)c4ccc(Cc5cc6c(cc5C)C(C)(C)CCC6(C)C)o4)CC3)o1)C(C)(C)CCC2(C)C [Compound 213]
IC50: > 10000 nM

COc1cccc(OC)c1NC(=O)c1ccc(Cc2c(C)c(C)c(C)c(C)c2C)o1 [Compound 204]
IC50: 1270 nM

Cc1cc2c(cc1Cc1ccc(C(=O)NCc3ccccc3Br)o1)C(C)(C)CCC2(C)C [Compound 449]
remaining activity at 1 µM (1 h): 42%

COc1ccc(NC(=O)c2ccc(Cc3cc4c(cc3C)C(C)(C)CCC4(C)C)o2)c(OC)c1 [Compound 332]
remaining activity at 10 µM (1 h): 1%

COCCNC(=O)c1ccc(Cc2cc3c(cc2C)C(C)(C)CCC3(C)C)o1 [Compound 432]
remaining activity at 1 µM (1 h): 42%

Cc1cnc(NC(=O)c2ccc(Cc3cc4c(cc3C)C(C)(C)CCC4(C)C)o2)s1 [Compound 331]
remaining activity at 10 µM (1 h): 49%

Cc1cc2c(cc1Cc1ccc(C(=O)Nc3ccc(OCc4ccccc4)c(OCc4ccccc4)c3)o1)C(C)(C)CCC2(C)C [Compound 62]
IC50: > 10000 nM

Cc1cc2c(cc1Cc1ccc(C(=O)NC(c3ccccc3)c3ccc(Cl)cc3)o1)C(C)(C)CCC2(C)C (stereo not drawn)
inhibition at 1 µM [1]: -8%
inhibition at 1 µM [2]: 3%

Cc1cc2c(cc1Cc1ccc(C(=O)NCc3cccs3)o1)C(C)(C)CCC2(C)C [Compound 415]
remaining activity at 1 µM (1 h): 18%

Cc1cc2c(cc1Cc1ccc(C(=O)N3CCN(c4ccccc4F)CC3)o1)C(C)(C)CCC2(C)C
inhibition at 1 µM [1]: 24%
inhibition at 1 µM [2]: 3%

Cc1cc2c(cc1Cc1ccc(C(=O)NCCCN(C)CCCN)o1)C(C)(C)CCC2(C)C [drawing 1005]
inhibition at 1 µM [1]: 13%
inhibition at 1 µM [2]: 33%

COc1ccc(NC(=O)c2ccc(Cc3cc4c(cc3C)C(C)(C)CCC4(C)C)o2)cn1 [Compound 325]
remaining activity at 10 µM (1 h): 3%

COc1ccccc1CCNC(=O)c1ccc(Cc2cc3c(cc2C)C(C)(C)CCC3(C)C)o1 [drawing 1114]
inhibition at 1 µM [1]: 61%
inhibition at 1 µM [2]: 70%

Cc1cc2c(cc1Cc1ccc(C(=O)NC(CO)Cc3ccccc3)o1)C(C)(C)CCC2(C)C (stereo not drawn) [drawing 1117]
% Inhib. @ 1 uM hGnRH (1 uM): 72%
Repeats @ 1 uM hGnRH (repeat of % Inhib. at 1 uM): 72

CCN(CCc1ccccn1)C(=O)c1ccc(Cc2cc3c(cc2C)C(C)(C)CCC3(C)C)o1
inhibition at 1 µM [1]: 12%
inhibition at 1 µM [2]: 8%

Cc1cc2c(cc1Cc1ccc(C(=O)NC3CCc4ccccc43)o1)C(C)(C)CCC2(C)C (stereo not drawn) [drawing 1129]
inhibition at 1 µM [1]: 38%
inhibition at 1 µM [2]: 45%

COc1cc(C#N)c(NC(=O)c2ccc(Cc3cc4c(cc3C)C(C)(C)CCC4(C)C)o2)cc1OC [Compound 343]
remaining activity at 10 µM (1 h): 33%

Cc1cc2c(cc1Cc1ccc(C(=O)NCc3cccc([N+](=O)[O-])c3)o1)C(C)(C)CCC2(C)C [drawing 1231]
inhibition at 1 µM [1]: 75%
inhibition at 1 µM [2]: 77%

Cc1ccc(-n2nc(C)cc2NC(=O)c2ccc(Cc3cc4c(cc3C)C(C)(C)CCC4(C)C)o2)cc1 [Compound 326]
remaining activity at 10 µM (1 h): 51%

Cc1cc2c(cc1Cc1ccc(C(=O)NCc3ccccc3Br)o1)C(C)(C)CCC2(C)C [drawing 1223]
inhibition at 1 µM [1]: 57%
inhibition at 1 µM [2]: 60%

Cc1cc2c(cc1Cc1ccc(C(=O)NCCN3CCCCC3)o1)C(C)(C)CCC2(C)C [drawing 982]
inhibition at 1 µM [1]: 15%
inhibition at 1 µM [2]: 15%

COc1cc(OC)nc(NCC2CCC(CNC(=O)c3ccc(Cc4cc5c(cc4C)C(C)(C)CCC5(C)C)o3)CC2)n1 (stereo not drawn) [Compound 71]
IC50: 2000 nM

Cc1cc2c(cc1Cc1ccc(C(=O)NCc3ccc(Br)cc3)o1)C(C)(C)CCC2(C)C [Compound 453]
remaining activity at 1 µM (1 h): 50%

Cc1cc2c(cc1Cc1ccc(C(=O)NCCCN3CCCCC3)o1)C(C)(C)CCC2(C)C [drawing 1050]
inhibition at 1 µM [1]: -3%
inhibition at 1 µM [2]: 8%

Cc1cc2c(cc1Cc1ccc(C(=O)NCCCCCN3CCOCC3)o1)C(C)(C)CCC2(C)C
inhibition at 1 µM [1]: -14%
inhibition at 1 µM [2]: -5%

CCN(CCNC(=O)c1ccc(Cc2cc3c(cc2C)C(C)(C)CCC3(C)C)o1)c1cccc(C)c1
inhibition at 1 µM [1]: 2%
inhibition at 1 µM [2]: 21%

Cc1cc2c(cc1Cc1ccc(C(=O)Nc3ccc(Br)c4ccccc34)o1)C(C)(C)CCC2(C)C [Compound 388]
remaining activity at 10 µM (1 h): 30%

Cc1cc2c(cc1Cc1ccc(C(=O)NCc3ccccc3Cl)o1)C(C)(C)CCC2(C)C [Compound 417]
remaining activity at 1 µM (1 h): 20%

COc1ccccc1NC(=O)c1ccc(Cc2cc3c(cc2C)C(C)(C)CCC3(C)C)o1 [Compound 358]
remaining activity at 10 µM (1 h): 9%

Cc1cc2c(cc1Cc1ccc(C(=O)NCc3ccco3)o1)C(C)(C)CCC2(C)C [drawing 1089]
inhibition at 1 µM [1]: 79%
inhibition at 1 µM [2]: 82%

Cc1ccccc1CNC(=O)c1ccc(Cc2cc3c(cc2C)C(C)(C)CCC3(C)C)o1 [drawing 1097]
inhibition at 1 µM [1]: 84%
inhibition at 1 µM [2]: 86%

Cc1cc2c(cc1Cc1ccc(C(=O)NCc3ccccc3OC(F)(F)F)o1)C(C)(C)CCC2(C)C
inhibition at 1 µM [1]: 1%
inhibition at 1 µM [2]: 41%

Cc1cc2c(cc1Cc1ccc(C(=O)NCc3cccc(Br)c3)o1)C(C)(C)CCC2(C)C [drawing 1235]
inhibition at 1 µM [1]: 62%
inhibition at 1 µM [2]: 68%

Cc1cc2c(cc1Cc1ccc(C(=O)N(C)CC(O)c3cccc(O)c3)o1)C(C)(C)CCC2(C)C (stereo not drawn)
inhibition at 1 µM [1]: -2%
inhibition at 1 µM [2]: 9%

COc1cccc(NC(=O)c2ccc(Cc3cc4c(cc3C)C(C)(C)CCC4(C)C)o2)c1 [Compound 337]
remaining activity at 10 µM (1 h): 6%

COC(=O)CNC(=O)c1ccc(Cc2cc3c(cc2C)C(C)(C)CCC3(C)C)o1 [Compound 164]
IC50: 1970 nM

Cc1cc2c(cc1Cc1ccc(C(=O)Nc3ccccc3CCO)o1)C(C)(C)CCC2(C)C [Compound 327]
remaining activity at 10 µM (1 h): 0%

Cc1cc2c(cc1Cc1ccc(C(=O)Nc3ccc(S(=O)(=O)Nc4nccs4)cc3)o1)C(C)(C)CCC2(C)C [Compound 29]
IC50: 1420 nM

Cc1cc2c(cc1Cc1ccc(C(=O)NCc3ccccc3F)o1)C(C)(C)CCC2(C)C [Compound 408]
remaining activity at 1 µM (1 h): 16%

COC(=O)c1ccc(NC(=O)c2ccc(Cc3cc4c(cc3C)C(C)(C)CCC4(C)C)o2)cc1OC [Compound 374]
remaining activity at 10 µM (1 h): 13%

Cc1cc2c(cc1Cc1ccc(C(=O)NCc3cccs3)o1)C(C)(C)CCC2(C)C [drawing 1099]
inhibition at 1 µM [1]: 82%
inhibition at 1 µM [2]: 85%

COc1cc(C)c(Cl)c(C)c1Cc1ccc(C(N)=O)o1 [AXC- 07450]
IC50: > 10000 nM

Cc1cc2c(cc1Cc1ccc(C(=O)NCCN3CCOCC3)o1)C(C)(C)CCC2(C)C [drawing 987]
inhibition at 1 µM [1]: 63%
inhibition at 1 µM [2]: 69%

Cc1cc2c(cc1Cc1ccc(C(=O)NCC(O)c3ccc(O)c(O)c3)o1)C(C)(C)CCC2(C)C (stereo not drawn)
inhibition at 1 µM [1]: -26%
inhibition at 1 µM [2]: 11%

Cc1cc2c(cc1Cc1ccc(C(=O)NCc3cccc(-c4ccccc4)c3)o1)C(C)(C)CCC2(C)C [drawing 1190]
inhibition at 1 µM [1]: -10%
inhibition at 1 µM [2]: -6%

CSc1ccccc1NC(=O)c1ccc(Cc2cc3c(cc2C)C(C)(C)CCC3(C)C)o1 [Compound 363]
remaining activity at 10 µM (1 h): 14%

Cc1ccc(CNC(=O)c2ccc(Cc3cc4c(cc3C)C(C)(C)CCC4(C)C)o2)cc1C [Compound 440]
remaining activity at 1 µM (1 h): 22%

Cc1cc2c(cc1Cc1ccc(C(=O)NCc3cccc(-c4ccccc4)c3)o1)C(C)(C)CCC2(C)C [Compound 66]
IC50: 3500 nM

Cc1cc2c(cc1Cc1ccc(C(=O)NCCC3OCCO3)o1)C(C)(C)CCC2(C)C [Compound 133]
IC50: 490 nM

Cc1cc2c(cc1Cc1ccc(C(=O)Nc3ccc(N(C)C)cc3)o1)C(C)(C)CCC2(C)C [Compound 335]
remaining activity at 10 µM (1 h): 2%

Cc1cc2c(cc1Cc1ccc(C(=O)NCCc3ccc(F)cc3)o1)C(C)(C)CCC2(C)C [Compound 446]
remaining activity at 1 µM (1 h): 55%

Cc1cc2c(cc1Cc1ccc(C(=O)NCc3ccccc3)o1)C(C)(C)CCC2(C)C [drawing 1070]
inhibition at 1 µM [1]: 82%
inhibition at 1 µM [2]: 85%

Cc1cc2c(cc1Cc1ccc(C(=O)NCCc3ccc(S(N)(=O)=O)cc3)o1)C(C)(C)CCC2(C)C [drawing 989]
inhibition at 1 µM [1]: 38%
inhibition at 1 µM [2]: 41%

Cc1cc2c(cc1Cc1ccc(C(=O)NCc3cccc(CNc4ncnc5scc(C)c45)c3)o1)C(C)(C)CCC2(C)C [Compound 142]
IC50: 3000 nM

CSc1ccccc1NC(=O)c1ccc(Cc2cc3c(cc2C)C(C)(C)CCC3(C)C)o1 [Compound 161]
IC50: 300 nM

CNc1ccccc1NC(=O)c1ccc(Cc2cc3c(cc2C)C(C)(C)CCC3(C)C)o1 [Compound 350]
remaining activity at 10 µM (1 h): 10%

Cc1cc2c(cc1Cc1ccc(C(=O)NCCOc3ccccc3)o1)C(C)(C)CCC2(C)C [drawing 1182]
inhibition at 1 µM [1]: 93%
inhibition at 1 µM [2]: 95%

COc1ccc(OC)c(C(O)C(C)NC(=O)c2ccc(Cc3cc4c(cc3C)C(C)(C)CCC4(C)C)o2)c1 (stereo not drawn)
inhibition at 1 µM [1]: -6%
inhibition at 1 µM [2]: 14%
